{
  "source": "patent US20260193644A1",
  "about": "“Compositions and Methods For Modulation of Tumor Suppressors and Oncogenes” (FLAGSHIP PIONEERING INNOVATIONS VII, LLC, priority 2022, published 2026)",
  "type_in_all_cases": "cell-based",
  "key": {"U2OS cells [1]": {"test_system": "U2OS cells", "assay": "WST-1 proliferation assay on U2OS cells treated with peptide"}, "HCT116 cells": {"test_system": "HCT116 cells", "assay": "WST-1 proliferation assay on HCT116 cells treated with peptide", "description": "Proliferation: HCT-116 cells were plated in 96 well plate (5,000 cells/well) grown in standard media supplemented with 10% FBS. After 48 hours incubation at 37° C. (5% CO2), the cells are subjected to the WST-1 ([…]) assay. The WST-1 assay (Sigma) is a measure of the metabolic activity (i.e. proliferative rate) of cells. […]"}, "HCT-116 cells": {"test_system": "HCT-116 cells", "assay": "Caspase-Glo 3/7 apoptosis assay, peptide-treated HCT-116 cells", "details": "for peptides inducing significant apoptosis (z-score vs vehicle control): listed = significant", "description": "(§1) Cell Culture: Tumor cell lines HCT-116 (Colon Cancer Cell line, ATCC) and U2OS (Osteoscarcoma Cell line, ATCC) cells were grown adherently in ATCC-formulated McCoy's 5a medium supplemented with 10% FBS and 1× penicillin-streptomycin at 37° C. (5% CO2). Jurkat cells (acute T-cell leukemia cell line, ATCC) were grown as suspension cultures in ATCC-formulated RPMI-1640 supplemented with 10% FBS and 1× penicillin-streptomycin at 37° C. (5% CO2). HEP-G2 cells (Liver Cancer Cell line, ATCC) cells were grown adherently in ATCC-formulated Eagle's Minimum Essential Medium (EMEM) supplemented with 10% FBS and 1× penicillin-streptomycin at 37° C. (5% CO2).\n(§2) Peptide Treatment: Target protein SEQ ID NO: 37997 was synthesized through Fluorenylmethyloxycarbonyl (Fmoc) protection group chemistry using Solid Phase Peptide Synthesis (SPPS). 5 μM of target peptide and control peptides were added to a 96 well plate containing 10,000 cells (100 μL/well). A white-walled 96-well plate adequate for cell culture and compatible with the luminometer was used. (Corning)\n(§3) Apoptosis Assay: Following 24 hrs of peptide treatment, an equal volume reconstituted Caspase-Glo® 3/7 assay reagent mixture (Promega) was added to the cells. The contents of wells were gently mixed using a plate shaker at 300-500 rpm for 30 seconds. The plate was then Incubate at room temperature for 3 hours. The treated plates were then read for luminescence on Promega™ GloMax® Plate Reader. A blank reaction that contained caspase-Glo® 3/7 reagent, vehicle and cell culture medium without cells was used to measure background luminescence. The blank reaction values were subtracted from experimental values. A negative control that contained caspase-Glo® 3/7 reagent and vehicle-treated cells in medium was included to determine the basal caspase activity of the cell culture system. Significant difference in apoptosis was determined using ANOVA analysis by comparing cells treated with SEQ ID NO: 37997 peptide to cells treated with an irrelevant control peptide, or vehicle control treated cells."}, "U2OS cells [2]": {"test_system": "U2OS cells", "assay": "Caspase-Glo 3/7 apoptosis assay, peptide-treated U2OS cells", "details": "for z-score compared to vehicle control (peptides inducing significant apoptosis): listed = significant", "description": "as §1, §2, §3"}, "Jurkat cells": {"test_system": "Jurkat cells", "assay": "Caspase-Glo 3/7 apoptosis assay, peptide-treated Jurkat cells", "details": "listed = significant", "description": "as §1, §2, §3"}, "[3]": {"test_system": "HCT116 colon cancer cell line", "assay": "WST-1 proliferation assay on HCT116 cells stably over-expressing target protein", "details": "48 hours", "description": "Over-expression: Stable over-expression tumor cell lines were made by transduction using lentivirus. For virus production, HEK-293T cells were cultured in DMEM with high glucose and GlutaMAX™ medium (ThermoFisher) supplemented with 10% FBS. After 24 h, cells were transfected using lipofectamine 3000 (ThermoFisher) of Lentiviral packaging plasmid mix (CELLECTA) and pGenLenti plasmids (GenScript Inc) containing: 1) no insert, 2) Target Protein encoding sequence, and 3) the AP2A1 protein (positive control for cell proliferation; https://doi.org/10.1038/sj.one.1205216), into HCT116 (Colon cancer cell line; ATCC). A Myc-tag (EQKLISEEDL) was added to the c-terminus of the expressed protein. After 48 hr post-transfection, culture media containing viruses was collected, loaded onto a 10 ml syringe and filtered through a 0.45 μm filter. For cell transduction, HCT116 colorectal cancer cells were seeded in 6-well plates, the virus was added to the cells. After post-transduction, stable cell mixed populations are selected for with puromycin for 14 days. Expression of the Target Protein and controls are confirmed by immunoblot of 50 μg of cell lysate using anti-myc-tag polyclonal antibody (CST).\nProliferation: Polyclonal cell lines that over-express the Target Protein or control, wild-type HCT-116 cells, were plated in 96 well plate (10,000 or 5,000 cells per well) grown in standard media in both low serum (0.1% FBS) and high serum (10% FBS) conditions, respectively. After 48 hours, the cells are subjected to the WST-1 ([…]) assay. The WST-1 assay (Sigma) is a measure of the metabolic activity of group of cells. The higher the metabolic activity the higher the proliferation rate. Significant differences in proliferation are determined by comparing protein-expressing cell lines with a stable cell line of the empty expression vector (control) using ANOVA analysis."}, "[4]": {"details": "Low sera (continued), 0.1 uM, head 4 SD"}, "[5]": {"details": "5 μM peptide, 24 hrs, vs vehicle control"}, "[6]": {"details": "Low sera (continued), 0.5 uM, head 3 SD"}},
  "note": "Values joined by “and” are separate entries in the source; they are usually repeats but may differ in a detail not shown here. Identical values can stand only once.",
  "data": [
    {"molecule": "SEQ ID NO: 37997: synthetically produced target protein, secreted tumor suppressor; sequence only in Sequence Listing (MSRLSLSWESLTNAIWPLDLQDIKGYLPNPLPQRVNLRKQILSISKEPN; listed as Homo sapiens)", "values": [
      {"measurement": "proliferation hit score, High sera", "setting": "U2OS cells [1]; 1 uM, head 5 SD", "value": "−5.9599", "unit": "SD"},
      {"measurement": "proliferation hit score, High sera", "setting": "U2OS cells [1]; 10 uM, head 8 SD", "value": "−13.23", "unit": "SD"},
      {"measurement": "proliferation hit score, Low sera", "setting": "U2OS cells [1]; Low sera (continued), 0.1 uM, head 2 SD", "value": "−2.359", "unit": "SD"},
      {"measurement": "proliferation hit score, Low sera", "setting": "U2OS cells [1]; [4]", "value": 1.922, "unit": "SD"},
      {"measurement": "proliferation hit score, Low sera", "setting": "U2OS cells [1]; Low sera, 1 uM, head 5 SD", "value": 0.3203, "unit": "SD"},
      {"measurement": "proliferation hit score, Low sera", "setting": "U2OS cells [1]; Low sera, 10 uM, head 6 SD", "value": "−16.09", "unit": "SD"},
      {"measurement": "proliferation (WST-1) vs irrelevant peptide or untreated cells", "setting": "HCT116 cells; 10 μM, 10% serum, 48 hours", "value": "significantly decreases proliferation"},
      {"measurement": "proliferation hit score, High sera", "setting": "HCT116 cells; 0.1 uM, head 3 SD", "value": "−3.114", "unit": "SD"},
      {"measurement": "proliferation hit score, High sera", "setting": "HCT116 cells; 1 uM, head 2 SD", "value": "−5.8", "unit": "SD"},
      {"measurement": "proliferation hit score, High sera", "setting": "HCT116 cells; 10 uM, head 4 SD", "value": "−11.51", "unit": "SD"},
      {"measurement": "proliferation hit score, Low sera", "setting": "HCT116 cells; Low sera, 1 uM, head 3 SD", "value": "−3.015", "unit": "SD"},
      {"measurement": "proliferation hit score, Low sera", "setting": "HCT116 cells; Low sera, 10 uM, head 3 SD", "value": "−6.915", "unit": "SD"},
      {"measurement": "basal apoptosis levels", "setting": "HCT-116 cells; [5]", "value": "increase in basal apoptosis levels"},
      {"measurement": "basal apoptosis levels", "setting": "U2OS cells [2]; [5]", "value": "increase in basal apoptosis levels"}
    ]},
    {"molecule": "SEQ ID NO: 29485: ORF peptide; sequence only in Sequence Listing (MRSPLSASALLLWSSSVARAFSSPSLLMAVPSPTCSRY; listed as Homo sapiens)", "values": [
      {"measurement": "proliferation hit score, Low sera", "setting": "U2OS cells [1]; [4]", "value": "2.026 SD and 1.922 SD"},
      {"measurement": "proliferation hit score, Low sera", "setting": "U2OS cells [1]; Low sera, 1 uM, head 5 SD", "value": "3.795 SD and 2.322 SD"},
      {"measurement": "proliferation hit score, Low sera", "setting": "U2OS cells [1]; Low sera, 10 uM, head 6 SD", "value": "5.612 SD and 4.323 SD"},
      {"measurement": "peptides inducing significant apoptosis vs vehicle control", "setting": "Jurkat cells", "value": "SEQ ID NO: 29485"},
      {"measurement": "peptides inducing significant apoptosis (z-score vs vehicle control)", "setting": "HCT-116 cells", "value": "SEQ ID NO: 29485"}
    ]},
    {"molecule": "SEQ ID NO: 34296: ORF peptide; sequence only in Sequence Listing (MFFCRNYGSFWFYVLSKMLSFFICLLIFVHLLLLSFLISDWPPPTGSAEHKYSG; listed as Homo sapiens)", "values": [
      {"measurement": "peptides inducing significant apoptosis vs vehicle control", "setting": "Jurkat cells", "value": "SEQ ID NO: 34296"}
    ]},
    {"molecule": "SEQ ID NO: 36828: ORF peptide; sequence only in Sequence Listing (MAIFFFFCIIVSSLPTAELGTENACSTCLLNE; listed as Homo sapiens)", "values": [
      {"measurement": "peptides inducing significant apoptosis vs vehicle control", "setting": "Jurkat cells", "value": "SEQ ID NO: 36828"},
      {"measurement": "z-score compared to vehicle control (peptides inducing significant apoptosis)", "setting": "U2OS cells [2]", "value": "SEQ ID NO: 36828"}
    ]},
    {"molecule": "SEQ ID NO: 27193: ORF peptide; sequence only in Sequence Listing (LRFKVLLRVLFFMAPVPPQVFGQ; listed as Homo sapiens)", "values": [
      {"measurement": "proliferation hit score, High sera", "setting": "U2OS cells [1]; 5 uM, head 5 SD", "value": 15.33, "unit": "SD"},
      {"measurement": "proliferation hit score, Low sera", "setting": "U2OS cells [1]; [6]", "value": 1.975, "unit": "SD"},
      {"measurement": "proliferation hit score, Low sera", "setting": "U2OS cells [1]; Low sera, 5 uM, head 2 SD", "value": 2.319, "unit": "SD"},
      {"measurement": "proliferation hit score, High sera", "setting": "HCT116 cells; 0.5 uM, head 3 SD", "value": 1.079, "unit": "SD"},
      {"measurement": "proliferation hit score, High sera", "setting": "HCT116 cells; 5 uM, head 3 sd", "value": 0.8327, "unit": "SD"},
      {"measurement": "proliferation hit score, Low sera", "setting": "HCT116 cells; [6]", "value": 1.081, "unit": "SD"},
      {"measurement": "proliferation hit score, Low sera", "setting": "HCT116 cells; Low sera, 5 uM, head 2 SD", "value": 0.6897, "unit": "SD"},
      {"measurement": "peptides inducing significant apoptosis vs vehicle control", "setting": "Jurkat cells", "value": "SEQ ID NO: 27193"},
      {"measurement": "peptides inducing significant apoptosis (z-score vs vehicle control)", "setting": "HCT-116 cells", "value": "SEQ ID NO: 27193"},
      {"measurement": "z-score compared to vehicle control (peptides inducing significant apoptosis)", "setting": "U2OS cells [2]", "value": "SEQ ID NO: 27193"}
    ]},
    {"molecule": "SEQ ID NO: 27301: target protein over-expressed (Myc-tagged) in stable HCT116 cell line; oncogene (protein, listed as Homo sapiens, Myc tag, oncogene) MVEKSHPSSLPTLPQPLNHCPETYMLLSAAPSGASQLLSTLTLFLKKHRMDIRTISLRMLLSHTGKLAL", "values": [
      {"measurement": "proliferation (WST-1) on over-expression vs Empty Vector", "setting": "[3]; high serum (10% FBS)", "value": "significantly increases proliferation"},
      {"measurement": "proliferation (WST-1) on over-expression vs Empty Vector", "setting": "[3]; low serum (0.1% FBS)", "value": "significantly increases proliferation"}
    ]},
    {"molecule": "SEQ ID NO: 27000: ORF peptide; sequence only in Sequence Listing (peptide, listed as Homo sapiens) MNLNPRLRLQVISFHPHPKALAVTLLPALTQSLCLCMASCVYSGPKGFLFLFFPQTAQEKHMKNIT", "values": [
      {"measurement": "proliferation hit score, Low sera", "setting": "U2OS cells [1]; [4]", "value": "7.758 SD and 7.542 SD"},
      {"measurement": "proliferation hit score, Low sera", "setting": "U2OS cells [1]; Low sera, 1 uM, head 5 SD", "value": "5.685 SD and 9.031 SD"},
      {"measurement": "peptides inducing significant apoptosis vs vehicle control", "setting": "Jurkat cells", "value": "SEQ ID NO: 27000"},
      {"measurement": "peptides inducing significant apoptosis (z-score vs vehicle control)", "setting": "HCT-116 cells", "value": "SEQ ID NO: 27000"},
      {"measurement": "z-score compared to vehicle control (peptides inducing significant apoptosis)", "setting": "U2OS cells [2]", "value": "SEQ ID NO: 27000"}
    ]}
  ]
}
